This test concerns 463943-066-T-J2-PDC complex spheroid growth. The test can be described thus: Anticancer human tumor 463943-066-T-J2-PDC patient-derived colon adenocarcinoma cell line growth inhibition [Asc]. To be noted: for viability, T/C: stronger effect = lower value. The method, then: Multicellular complex tumor spheroid response to apoptosis pathway targeting inhibitors Alrizomadlin, Pelcitoclax, and Dasminapant in combination with a variety of drugs and investigational agents in selected tumor cell lines
The MDM2 inhibitor alrizomadlin, the Bcl-2/Bcl-xL inhibitor pelcitoclax, and the IAPs inhibitor dasminapant were evaluated both individually and in combination with standard of care and investigational anticancer small molecules within a complex spheroid model of solid tumors. . Complex spheroids include a stromal component modeled by human endothelial cells (HUVEC) and fibroblasts modeled by human mesenchymal stem cells (MSCs). The concentration ranges selected for each drug and investigational agent were based upon clinically achievable concentrations if the clinical Cmax of the agent was known.
Compounds. The drugs and investigational agents: alrizomadlin (APG-115; NSC831270), pelcitoclax (APG-1252; NSC835773), dasminapant (APG-1387;NSC834197), TAK-243 (NSC785004), copanlisib (NSC809693), olaparib (NSC753686), talazoparib (NSC767125), cobimetinib (NSC 768068), eltanexor (KPT-8602, NSC 794443), abemaciclib (NSC 768073), sotorasib (NSC818433), adagrasib (NSC 831453), MRTX-1133 (NSC 836407), Iadademestat (ORY1001, NSC 806812), and RMC-4630 (NSC839698), were obtained from the NCI Developmental Therapeutics Program Chemical Repository. The FDA-approved anticancer drug set is available from the Developmental Therapeutics Program at https://dtp.cancer.gov/organization/dscb/obtaining/available plates.htm. […] The stock solutions were prepared in dimethyl sulfoxide (DMSO, Sigma-Aldrich, St. Louis, MO, cat. D2650) at 800-fold the tested concentration and stored at -70 degrees C prior to their use. All drugs and investigational agents were tested over a range starting from a high concentration at or near the clinical Cmax and decreasing in half-log increments. If the clinical Cmax for an agent had not been determined, the highest concentration tested was 10 microM.
The patient-derived cancer (PDC) cell lines include five colon adenocarcinomas: 186277-243-T-J2-PDC, 616215-338-R-J1-PDC, 439559-082-T-J2-PDC, 463943-066-T-J2-PDC, and 519858-162-T-J1-PDC; three pancreatic carcinomas: 323965-272-R-J2-PDC, 521955-158-R6-J3-PDC, and 521955-158-R2-J5-PDC; two uterine sarcomas: 327498-152-R-J2-PDC and 993429-296-R-J1-PDC; two rhabdomyosarcomas: 755483-174-R-J1-PDC and 772245-204-R-J1-PDC; two soft tissue sarcomas: 126254-015-R-J1-PDC and 494315-158-R-J1-PDC; two malignant fibrous histiocytomas: 317291-083-R-J1-PDC and 596521-263-R-J1-PDC; two breast carcinomas: 171881-019-R-J1-PDC and 885512-296-R-J2-PDC; and one ovarian carcinoma: 6556581-035-R-J-PDC were obtained from the NCI PDMR, (https://pdmr.cancer.gov). The established cell lines HSSY-2 synovial sarcoma (RRID:CVCL 8719), SYO-1 synovial sarcoma (RRID:CVCL_7146), MPNST malignant peripheral neural sheath tumor were obtained from the Sloan Kettering Institute. The following established cell lines were purchased from the American Type Culture Collection (ATCC, Manassas, VA), Sor the received from the NCI repository:, PANC-1 pancreatic carcinoma (CRL-1469, RRID:CVCL_0480), OVCAR-5 ovarian carcinoma (RRID:CVCL_1628), OVCAR-8 ovarian carcinoma (RRID:CVCL_1629), , MCF-7 breast carcinoma (CRL-12584, RRID:CVCL_0031), MDA-MB-231 breast carcinoma (CRL-12532, RRID:CVCL_0062), NCI-H1876 small cell lung carcinoma (CRL-5902, RRID:CVCL_1503), NCI-H510A small cell lung carcinoma (HTB-184, RRID:CVCL_1565), NCI-H1417 (CRL-5869, RRID:CVCL_1469), and NCI-H196 small cell lung carcinoma (CRL-5823, RRID:CVCL_1509). Dr. Peter Houghton (Greehey Children's Cancer Research Institute, University of Texas Health Science Center, San Antonio, TX) provided Rh-18 rhabdomyosarcoma (RRID:CVCL_1659). Pooled donor human umbilical vein endothelial cells (HUVEC, Lonza, cat. CC-2519) and human mesenchymal stem cells (hMSC, Lonza, cat. PT-2501) were purchased from Lonza (Walkersville, MD).
Cell Culture. […]

Values joined by “and” are separate entries in the source; they are usually repeats but may differ in a detail not shown here. Equal entries are not always repeated.

The term viability, T/C denotes the ratio of treated to control. What is called IC50 is the concentration that inhibits the measured activity by half.
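Note: compound exposure lasted 7 days.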
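Throughout, for viability, T/C: 100% = DMSO vehicle control wells.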

As for `C#Cc1c(F)ccc2cc(O)cc(-c3ncc4c(N5CC6CCC(C5)N6)nc(OCC56CCCN5CC(F)C6)nc4c3F)c12` (configuration not stated), the viability, T/C is 103% and 101% and 90.9% (compound 0.0316 µM); 88.8% and 94.5% and 88.5% (compound 0.1 µM); 100% and 104% and 103% (compound 0.316 µM); 109% and 104% and 115% (compound 1 µM); 105% and 100% (2×) (compound 3.16 µM); 96.9% and 95.9% and 104% (compound 10 µM). Also, for the setting “curve of compound”, the IC50 was > 10 µM.

On to `C=C(F)C(=O)N1CCN(c2nc(OCC3CCCN3C)nc3c2CCN(c2cccc4cccc(Cl)c24)C3)CC1CC#N` (configuration not stated), for which the viability, T/C is 98.4% and 102% (compound 0.0316 µM); 102% and 94.9% (compound 0.1 µM); 102% (compound 0.316 µM); 109% and 106% (compound 1 µM); 95.6% (compound 3.16 µM); 18.6% and 29.3% (compound 10 µM). In addition, the IC50 (curve of compound) is 6.27 µM and 7 µM.

Regarding `C=CC(=O)N1CCN(c2nc(=O)n(-c3c(C)ccnc3C(C)C)c3nc(-c4c(O)cccc4F)c(F)cc23)C(C)C1` (configuration not stated), the viability, T/C reads like this: (compound 0.0316 µM) 102% and 108%; (compound 0.1 µM) 90.1% and 88.6%; (compound 0.316 µM) 93% and 101%; (compound 1 µM) 100% and 110%; (compound 3.16 µM) 102% and 104%; (compound 10 µM) 93.7% and 107%. Besides, the IC50 (curve of compound) is > 10 µM.

For the compound `Cc1c(S(C)(=O)=O)c(-c2cc(F)cc(N3CCN(c4ccc(NS(=O)(=O)c5ccc(NC(CCN6CCC(C(=O)OCCCP(=O)(O)O)CC6)CSc6ccccc6)c(S(=O)(=O)C(F)(F)F)c5)cc4)CC3)c2)c(-c2ccc(Cl)cc2)n1C(C)C` (configuration not stated), the viability, T/C by setting is: (compound 0.0316 µM) 96.2% [middle of 7 runs]; (compound 0.1 µM) 94.8% [middle of 7 runs]; (compound 0.316 µM) 87.8% [middle of 7 runs]; (compound 1 µM) 78% [middle of 7 runs]; (compound 3.16 µM) 62.6% [middle of 7 runs]; (compound 10 µM) 56.5% [middle of 7 runs]. For the same compound, the IC50 (compound alone, run of 11/07/2022) was > 10 µM.

On to `O=C(c1cc(Cc2n[nH]c(=O)c3ccccc23)ccc1F)N1CCN(C(=O)C2CC2)CC1`, for which the viability, T/C is, setting by setting: (compound 0.0316 µM) 98.1% and 99.9% and 93.3%; (compound 0.1 µM) 98.8% and 91.9% and 78.9%; (compound 0.316 µM) 99.5% and 98.5% and 103%; (compound 1 µM) 96.7% and 97.9% and 108%; (compound 3.16 µM) 103% and 97.2% and 92.4%; (compound 10 µM) 92.1% and 91.5% and 97.2%. Further, the IC50 (curve of compound) is > 10 µM.

For the compound `O=C(c1cc(Cc2n[nH]c(=O)c3ccccc23)ccc1F)N1CCN(C(=O)C2CC2)CC1` + CCN1C(C(=O)NC23CCC(C(=O)O)(CC2)CC3)C(c2cccc(Cl)c2F)C2(C(=O)Nc3cc(Cl)ccc32)C12CCCCC2, the IC50 was > 10 µM (curve of first compound, second compound 0.00949 µM); > 10 µM (curve of first compound, second compound 0.03 µM); > 10 µM (curve of first compound, second compound 0.0949 µM); > 10 µM (curve of first compound, second compound 0.3 µM); > 10 µM (curve of first compound, second compound 0.949 µM); > 10 µM (curve of first compound, second compound 3 µM). Also, the viability, T/C runs as follows: (second compound 0.00949 µM, first compound 0.0316 µM) 99.4%; (second compound 0.00949 µM, first compound 0.1 µM) 102%; (second compound 0.00949 µM, first compound 0.316 µM) 95.9%; (second compound 0.00949 µM, first compound 1 µM) 104%; (second compound 0.00949 µM, first compound 3.16 µM) 106%; (second compound 0.00949 µM, first compound 10 µM) 91.5%. In addition, the viability, T/C (second compound 0.03 µM, first compound 0.0316 µM) is 103%; the viability, T/C (second compound 0.03 µM, first compound 0.1 µM) is 88.8%; the viability, T/C (second compound 0.03 µM, first compound 0.316 µM) is 94.6%; the viability, T/C (second compound 0.03 µM, first compound 1 µM) is 97.4%; the viability, T/C (second compound 0.03 µM, first compound 3.16 µM) was 96.9%; the viability, T/C (second compound 0.03 µM, first compound 10 µM) was 89.9%. The viability, T/C was 98.5% (second compound 0.0949 µM, first compound 0.0316 µM); 85.4% (second compound 0.0949 µM, first compound 0.1 µM); 92.7% (second compound 0.0949 µM, first compound 0.316 µM); 89.8% (second compound 0.0949 µM, first compound 1 µM); 89.1% (second compound 0.0949 µM, first compound 3.16 µM); 81.4% (second compound 0.0949 µM, first compound 10 µM). Further, the viability, T/C was 87.9% (second compound 0.3 µM, first compound 0.0316 µM); 80.1% (second compound 0.3 µM, first compound 0.1 µM); 83.4% (second compound 0.3 µM, first compound 0.316 µM); 83.2% (second compound 0.3 µM, first compound 1 µM); 76.4% (second compound 0.3 µM, first compound 3.16 µM); 83.7% (second compound 0.3 µM, first compound 10 µM). The viability, T/C is 76.7% (second compound 0.949 µM, first compound 0.0316 µM); 75.2% (second compound 0.949 µM, first compound 0.1 µM); 74.3% (second compound 0.949 µM, first compound 0.316 µM); 75.8% (second compound 0.949 µM, first compound 1 µM); 75.5% (second compound 0.949 µM, first compound 3.16 µM); 72% (second compound 0.949 µM, first compound 10 µM). Moreover, the viability, T/C runs as follows: (second compound 3 µM, first compound 0.0316 µM) 72.3%; (second compound 3 µM, first compound 0.1 µM) 69.1%; (second compound 3 µM, first compound 0.316 µM) 70.9%; (second compound 3 µM, first compound 1 µM) 71.7%; (second compound 3 µM, first compound 3.16 µM) 70.6%; (second compound 3 µM, first compound 10 µM) 74.7%.

Source of the values: PubChem BioAssay AID1963422 (Molecular Pharmacology Branch, DTP, NCI, 2024).
